Assay: In vitro metabolism: disappearance of parent compound in liver microsomes (female rat)
Type: in vitro ADME
Conditions: 5 uM compound, 0.5 mg/ml microsomal protein, 2 mM NADPH, 30 minutes at 37° C.
Protocol: Human, rat, dog, and monkey liver microsomes are isolated by differential centrifugation. Specimens of human liver were obtained from the International Institute for the Advancement of Medicine (Scranton, Pa.). The disappearance of the parent compound is studied in a mixture containing 5 uM compound, 0.5 mg/ml microsomal protein, and 2 mM NADPH in 50 mM K Phosphate buffer, pH 7.4. Samples are incubated for 30 minutes at 37° C. The reaction is terminated by the addition of acetonitrile and compounds analyzed by LC-MS as described above.

Fem. t % rem. 30′: 18%
SMILES: COc1cc2c(cc1Cc1ccc(C(=O)NNc3cc(C)c4c(C)nn(C)c4n3)o1)C(C)(C)CCC2(C)C [Example C2, 5-[(3-Methoxy-5,5,8,8-tetramethyl-5,6,7,8-tetrahydro-2-naphthalenyl)methyl]-N′-(1,3,4-trimethyl-1H-pyrazolo[3,4-b]pyridin-6-yl)-2-furohydrazide]

Source: patent US6903132B2, “Non-peptide GnRH agents, pharmaceutical compositions and methods for their use” (Agouron Pharmaceuticals, Inc., priority 2002, dated 2005)
